Data published in patent US7977064B2, “Disheveled PDZ modulators” (Genentech, Inc., priority 2006, dated 2011).
“Also recorded” adds a separate entry of the source. Blank lines part the entries; values can stand above or below the substance they belong to. No end group written: not given here.

Columns and labels:
[1] = test system: Wnt3a-stimulated β-catenin signaling in HEK293S cells; experiment: TOPGLOW luciferase reporter assay in HEK293S cells; assay type: cell-based; conditions: for Effect on Wnt3a-stimulated transcriptional activity (TopGlow): peptide up to 20 μM in medium
Protocol: HEK293S cells were transfected with the reporter plasmid pTOPGLOW combined with pRL reporter. Cell extract was prepared and the luciferase activity was measured. The relative luciferase unit (RLU) is TopGlow luciferase activity divided by Renila luciferase activity. The fold of activation is the RLU ratio between the Wnt3a-stimulated and non-stimulated cells. Cells were treated with either 10 μM (light bar) or 20 μM (dark bar) peptide ligands.
(§1) Cell culture, transfection and peptide treatment: HEK293 and H1703 were propagated according to the instructions from American Type Culture Collection. HEK293 cells were transfected with FuGene6 according to the manufacturer's instructions (Roche Molecular Biochemicals) at cell confluence of 50%. H1703 cells were transfected with Lipofectamine according to manufacturer's instruction at cell confluence of 80%. Cells were treated with medium containing peptide (5 μM-40 μM) 24 hours after transfection, and were routinely harvested 24 hours after the peptide treatment for additional assays.
TOPGLOW assay: Cells were plated in 12-well plates. The TOPGLOW reporter plasmid was transfected transiently into cells as described above. TCF-mediated gene transcription was determined by pTOPGLOW luciferase activity, which was normalized to relative luciferase activities of pRL reporter (cotransfected internal control). All experiments were performed duplicated.

[2] = test system: β-catenin protein level in HEK293S cells; experiment: Western blot of β-catenin protein level in HEK293S cells; assay type: cell-based; conditions: 20 μM peptide, 24 hours, compared to DMSO and PEN
Protocol: HEK293S cells were treated with 20 μM DVLp and PEN for 24 hours. Cell lysate was prepared and subjected to SDS-PAGE. β-catenin was blotted by poly-clonal anti-β-catenin (Genentech, Inc., South San Francisco).
as §1
Western Blot: Harvested cells were lysed with SIC lysis buffer, the supernatant was subjected to SDS-PAGE, which was transferred, blocked and blotted with proper primary antibody by a standard western blot protocol. Fluorescence labeled secondary antibodies (Alexa goat anti-mouse or anti-rabbit) were added and the results were analyzed by Li-core™.

Dvl2PDZ [3] = biological target: T1, Dvl2PDZ (Homo sapiens, UniProt O14641); experiment: Competition ELISA, peptides binding to Dvl2PDZ
T1 construct: protein fragments spanning amino acids 248-364 of the full-length Dvl2 were produced; made in house; host or cells: E. coli (pGEX system)
T1 sequence (O14641 248-364): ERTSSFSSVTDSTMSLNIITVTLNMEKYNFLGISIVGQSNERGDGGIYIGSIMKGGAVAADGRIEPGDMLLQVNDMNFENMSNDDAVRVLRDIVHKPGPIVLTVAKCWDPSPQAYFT
Source text: Many methods are known and can be used to identify the binding affinities of binding molecules (e.g. peptides, proteins, small molecules, etc.); for example, binding affinities can be determined as IC50 values using competition ELISAs. The IC50 value is defined as the concentration of binder which blocks 50% of Dvl PDZ domain binding to a ligand. For example, in solid phase assays, assay plates may be prepared by coating microwell plates (preferably treated to efficiently adsorb protein) with neutravidin, avidin or streptavidin. […] After further washing, the binding reactions are detected, often with an antibody recognizing the non-PDZ fusion partner and a labeled (such as horseradish peroxidase (HRP), alkaline phosphatase (AP), or a fluorescent tag such as fluorescein) secondary antibody recognizing the primary antibody. The plates are then developed with the appropriate substrate (depending on the label) and the signal quantified, such as using a spectrophotometric plate reader. […] Thus the ability of the various molecules to inhibit PDZ domain from binding a known PDZ domain binder can be measured.
Affinity assays—The binding affinities of peptides for Dvl2PDZ were determined as IC50 values using a competition ELISA, as previously described. […]

Dvl2PDZ [4] = biological target: T1, Dvl2PDZ; experiment: Fluorescence polarization assay, peptides binding to Dvl2PDZ
Protocol: The binding affinities of synthetic peptides were also measured by Flourescence polarization assay. Serial dilution of purified Dvl2PDZ domain polypeptide (1-10 μM) was incubated with 10 nM probe peptide (FAM-KWYGWL-COOH) (SEQ ID NO: 169) in PBS, 0.1% Triton X100 as 30 μl volume in 96-well black HE96 plates (LJL Biosystem, Inc, Calif.), and incubated for 15 minutes at room temperature. Polarization measurements were performed in Analyst platereader (LJL Biosystems, Inc., Sunnyvale, Calif.). Ks=536 nM was derived from this assay by non-linear regression fitting with KaleidaGraph™. Competition experiments were performed by addition of serial dilution of the free peptides (0-500 μM) to solution with 10 nM probe and 1 μM Dvl2PDZ. The polarization was measured and IC50 values were derived as described above. Ki values were calculated as described previously.

Substance: Ac-RQTKIWFQNRRMKWKK [PEN, reference compound]
- Effect on Wnt3a-stimulated transcriptional activity (TopGlow) ([1]; HEK293S cells): did not show an inhibition effect

Substance: Ac-RQTKIVWFQNRRMKKGEIVLWSDIPG [DVLp_N3]
- β-catenin level in whole cell lysate upon Wnt3a stimulation [2]: significantly lower β-catenin levels
- β-catenin level in whole cell lysate upon Wnt3a stimulation ([2]; listed as Dvlp_N3): reduced the Wnt-stimulated increase in β-catenin protein level
- Effect on Wnt3a-stimulated transcriptional activity (TopGlow) ([1]; HEK293S cells): inhibited Wnt3a-stimulated transcriptional activity significantly; also recorded: blocked the Wnt-stimulated β-catenin signaling
- Effect on Wnt3a-stimulated transcriptional activity (TopGlow) ([1]; HEK293S cells, listed as Dvlp_N3): significantly blocked the Wnt-stimulated increase in β-catenin signaling
- Dose dependence of inhibition of Wnt-stimulated β-catenin signaling ([1]; HEK293S cells, two independent experiments): dose-dependent
- Inhibition of Wnt3a-stimulated transcriptional activity ([1]; HEK293 cells, peptide 5-20 μM): up to 80%

- IC50 (Dvl2PDZ [3]): 242000 nM
Substance: Ac-KGFGML-OH [Peptide D5, K G F G M L]

- Ki (Dvl2PDZ [4]; competition with 10 nM FAM-KWYGWL-COOH probe, 1 μM Dvl2PDZ, read-out: Ki measured by Flourescence polarization assay): 725 nM
Substance: Ac-KWYGWL-OH [Peptide D1, K W Y G W L]

- IC50 (Dvl2PDZ [3]): 930 nM
Substance: Ac-KWYGWF [Peptide D2, K W Y G W F]

- Affinity lower than that of D1 (Dvl2PDZ [4]; ratio of Ki values): 6 fold
Substance: Ac-GEIVLWSDIPG-NH2 [Peptide N3, G E I V L W S D I P G]
